Activity calls are given as the source filed them.
How the values were obtained:
Steroidogenic factor 1 = Steroidogenic factor 1 (Homo sapiens, UniProt Q13285); experiment: Counterscreen for inverse agonists of the liver receptor homolog-1 (LRH-1; NR5A2): Luminescence-based cell-based high throughput dose response assay to identify inverse agonists of the Steroidogenic Factor 1 Nuclear Receptor (SF1; NR5A1).; format: functional
[1] = nonselective StAR promoter luciferase inhibitors – cell-based, luminescence, luciferase reporter, counter-screen for LRH-1 inverse agonist project, dose response (AID 651969); format: functional
[2] = target: Nuclear receptor subfamily 5 group A member 2 (Homo sapiens, UniProt O00482); format: functional, cell-based;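 further: HEK293T cells transfected with LRH-1 and a StAR promoter luciferase reporter; potency for inhibitors that lower LRH-1 driven reporter light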
[3] = target: T1, Polyadenylate-binding protein 1 (Homo sapiens, UniProt P11940); experiment: MLLE binding blockers, Cy5 peptide tracer – biochemical, fluorescence polarization, Cy5-PAM2 peptide, secondary, miRNA deadenylation inhibitor project, dose response (AID 602260); format: functional; conditions: read-out: IC50_Mean
Caspase-3 = target: T2, Caspase-3 (Homo sapiens, UniProt P42574); format: functional;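 further: Dose-response selectivity test against caspase-3 for candidate inhibitors of sentrin-specific proteases (SENPs)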
T2 sequence (P42574 whole entry): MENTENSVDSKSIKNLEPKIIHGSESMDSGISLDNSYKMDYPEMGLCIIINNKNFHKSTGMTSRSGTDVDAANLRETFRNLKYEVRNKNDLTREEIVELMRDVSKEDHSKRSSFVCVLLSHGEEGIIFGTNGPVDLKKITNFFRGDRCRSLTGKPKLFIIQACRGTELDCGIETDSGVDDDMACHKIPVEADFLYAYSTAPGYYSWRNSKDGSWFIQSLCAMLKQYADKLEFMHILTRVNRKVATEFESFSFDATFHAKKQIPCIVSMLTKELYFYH

[4] = target: T3, Sentrin-specific protease 7 (Homo sapiens, UniProt Q9BQF6); format: functional;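 further: Luminescence-based dose-response confirmation of ultra-high-throughput screening hits, measuring inhibition of SENP7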
T3 sequence (Q9BQF6 whole entry): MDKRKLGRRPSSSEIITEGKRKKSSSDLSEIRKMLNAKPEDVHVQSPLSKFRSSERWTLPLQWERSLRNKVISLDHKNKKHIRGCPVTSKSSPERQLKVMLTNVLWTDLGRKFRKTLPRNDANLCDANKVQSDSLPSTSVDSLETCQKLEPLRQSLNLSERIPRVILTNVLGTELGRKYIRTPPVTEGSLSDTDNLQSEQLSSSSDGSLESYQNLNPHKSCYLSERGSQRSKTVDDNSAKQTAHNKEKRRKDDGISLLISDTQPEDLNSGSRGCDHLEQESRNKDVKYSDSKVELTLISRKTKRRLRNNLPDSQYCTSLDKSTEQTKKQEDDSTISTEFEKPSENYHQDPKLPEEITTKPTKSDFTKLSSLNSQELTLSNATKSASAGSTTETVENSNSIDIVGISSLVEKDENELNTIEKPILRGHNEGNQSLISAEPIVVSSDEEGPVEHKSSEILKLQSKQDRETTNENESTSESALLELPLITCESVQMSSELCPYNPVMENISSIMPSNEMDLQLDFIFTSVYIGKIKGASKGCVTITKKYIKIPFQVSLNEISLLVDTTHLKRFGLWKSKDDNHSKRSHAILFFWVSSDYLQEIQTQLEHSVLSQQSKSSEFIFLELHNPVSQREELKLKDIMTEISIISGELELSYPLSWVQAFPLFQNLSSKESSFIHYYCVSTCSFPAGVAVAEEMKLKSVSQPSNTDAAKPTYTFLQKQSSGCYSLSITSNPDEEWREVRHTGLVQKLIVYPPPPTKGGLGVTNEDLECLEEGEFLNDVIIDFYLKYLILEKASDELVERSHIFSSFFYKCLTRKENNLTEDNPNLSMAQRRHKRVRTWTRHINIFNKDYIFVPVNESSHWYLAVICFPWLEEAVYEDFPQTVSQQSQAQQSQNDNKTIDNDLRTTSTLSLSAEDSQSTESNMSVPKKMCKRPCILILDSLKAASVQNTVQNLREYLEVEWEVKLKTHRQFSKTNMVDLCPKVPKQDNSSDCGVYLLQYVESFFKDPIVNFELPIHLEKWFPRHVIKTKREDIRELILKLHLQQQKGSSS

[5] = target: T4, Sentrin-specific protease 6 (Homo sapiens, UniProt Q9GZR1); format: functional;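 further: Luminescence-based dose-response confirmatory assay of SENP6 inhibition, following up an ultra-high-throughput screen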
T4 sequence (Q9GZR1 whole entry): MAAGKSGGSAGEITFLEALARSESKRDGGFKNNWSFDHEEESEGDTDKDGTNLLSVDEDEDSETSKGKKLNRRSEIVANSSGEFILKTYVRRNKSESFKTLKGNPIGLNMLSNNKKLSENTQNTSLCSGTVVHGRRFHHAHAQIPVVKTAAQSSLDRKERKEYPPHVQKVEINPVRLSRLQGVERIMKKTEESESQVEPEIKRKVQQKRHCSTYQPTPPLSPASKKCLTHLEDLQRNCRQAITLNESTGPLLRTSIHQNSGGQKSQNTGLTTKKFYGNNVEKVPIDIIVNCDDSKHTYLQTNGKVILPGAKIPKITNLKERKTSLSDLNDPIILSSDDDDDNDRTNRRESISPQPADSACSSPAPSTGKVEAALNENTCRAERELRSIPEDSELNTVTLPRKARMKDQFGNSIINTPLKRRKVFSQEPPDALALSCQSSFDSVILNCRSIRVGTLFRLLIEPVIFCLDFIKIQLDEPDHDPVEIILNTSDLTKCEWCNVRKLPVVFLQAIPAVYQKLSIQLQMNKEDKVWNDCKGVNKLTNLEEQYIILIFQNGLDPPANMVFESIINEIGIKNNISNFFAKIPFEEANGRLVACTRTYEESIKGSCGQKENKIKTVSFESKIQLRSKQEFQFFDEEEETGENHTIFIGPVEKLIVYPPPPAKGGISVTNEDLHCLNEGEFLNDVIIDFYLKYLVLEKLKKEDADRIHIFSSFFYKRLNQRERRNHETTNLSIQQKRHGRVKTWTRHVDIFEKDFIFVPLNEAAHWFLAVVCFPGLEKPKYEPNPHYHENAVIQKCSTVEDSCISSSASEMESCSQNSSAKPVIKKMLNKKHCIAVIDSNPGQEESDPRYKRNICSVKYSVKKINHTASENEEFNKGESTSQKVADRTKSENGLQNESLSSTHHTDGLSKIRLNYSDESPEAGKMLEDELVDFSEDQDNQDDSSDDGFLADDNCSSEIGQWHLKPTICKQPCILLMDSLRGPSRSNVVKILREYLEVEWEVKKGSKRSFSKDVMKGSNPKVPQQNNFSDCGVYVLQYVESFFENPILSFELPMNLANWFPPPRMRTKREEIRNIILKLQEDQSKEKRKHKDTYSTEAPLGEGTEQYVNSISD

[6] = target: T5, Sentrin-specific protease 8 (Homo sapiens, UniProt Q96LD8); format: functional;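 further: luminescence read-out of SENP8 inhibition, dose-response confirmation following an ultra-high-throughput screen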
T5 sequence (Q96LD8 whole entry): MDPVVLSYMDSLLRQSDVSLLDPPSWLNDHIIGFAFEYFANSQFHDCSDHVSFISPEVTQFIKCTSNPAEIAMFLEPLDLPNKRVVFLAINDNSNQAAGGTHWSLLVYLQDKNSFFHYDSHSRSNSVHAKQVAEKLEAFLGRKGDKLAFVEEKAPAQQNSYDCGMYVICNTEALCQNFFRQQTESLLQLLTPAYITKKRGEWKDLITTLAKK

[7] = target: T1, Polyadenylate-binding protein 1; experiment: MLLE domain peptide-binding blockers, IC50 – biochemical, fluorescence polarization, FITC-PAM2 peptide, dose response (AID 602259); format: functional; conditions: read-out: IC50_Mean
[8] = HIV-1 AD8 envelope cell-cell fusion blockers – cherry-pick, dose response (AID 652062); format: functional, cell-based;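 further: luciferase signal from cell-cell fusion driven by HIV-1 clade B AD8 Env; potency is for inhibitors of fusion seen as a drop in luminescence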
[9] = blockers of HIV-1 ZM109 envelope-driven cell-cell fusion – HeLa effector, CEM target cells, luciferase, cherry-pick, dose response (AID 652058); format: functional, cell-based;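 further: luciferase signal from HIV-1 Env mediated cell-cell fusion of effector and target cells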
[10] = blockers of HIV-1 envelope-mediated cell-cell fusion – cherry-pick, dose response (AID 652057); format: functional, cell-based
[11] = intracellular Trypanosoma cruzi inhibitors in host cells – cell-based, plate reader, cherry-pick samples, set 3, dose response (AID 651818); format: functional;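 further: compounds incubated with infected cells for about four days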
[12] = target: T6, Calpain-2 catalytic subunit (Sus scrofa, UniProt P43367); experiment: m-calpain protease blockers, concentration series – biochemical, fluorogenic peptide substrate, dose response (AID 1420); format: functional
T6 sequence (P43367 whole entry): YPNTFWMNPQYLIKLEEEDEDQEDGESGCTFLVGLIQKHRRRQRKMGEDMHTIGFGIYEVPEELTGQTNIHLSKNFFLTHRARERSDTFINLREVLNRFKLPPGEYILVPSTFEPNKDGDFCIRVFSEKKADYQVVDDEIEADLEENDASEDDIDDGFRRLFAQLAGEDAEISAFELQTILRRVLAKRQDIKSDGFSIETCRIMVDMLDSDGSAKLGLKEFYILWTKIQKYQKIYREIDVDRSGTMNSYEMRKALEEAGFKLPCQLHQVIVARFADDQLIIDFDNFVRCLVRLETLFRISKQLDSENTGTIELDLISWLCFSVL

Chain of Steroidogenic factor 1 (Q13285 whole entry): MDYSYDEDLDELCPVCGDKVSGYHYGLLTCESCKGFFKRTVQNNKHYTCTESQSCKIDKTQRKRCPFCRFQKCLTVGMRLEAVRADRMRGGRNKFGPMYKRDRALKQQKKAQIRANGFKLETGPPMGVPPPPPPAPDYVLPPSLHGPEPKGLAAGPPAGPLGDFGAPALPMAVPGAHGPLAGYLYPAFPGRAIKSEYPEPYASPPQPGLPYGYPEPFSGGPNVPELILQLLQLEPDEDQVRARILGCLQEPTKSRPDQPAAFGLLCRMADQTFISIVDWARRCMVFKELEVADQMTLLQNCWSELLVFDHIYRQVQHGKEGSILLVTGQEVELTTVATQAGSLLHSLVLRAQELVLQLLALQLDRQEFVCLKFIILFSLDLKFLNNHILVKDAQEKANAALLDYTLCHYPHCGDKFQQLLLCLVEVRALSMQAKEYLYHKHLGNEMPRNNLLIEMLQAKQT
Chain of Nuclear receptor subfamily 5 group A member 2 (O00482 whole entry): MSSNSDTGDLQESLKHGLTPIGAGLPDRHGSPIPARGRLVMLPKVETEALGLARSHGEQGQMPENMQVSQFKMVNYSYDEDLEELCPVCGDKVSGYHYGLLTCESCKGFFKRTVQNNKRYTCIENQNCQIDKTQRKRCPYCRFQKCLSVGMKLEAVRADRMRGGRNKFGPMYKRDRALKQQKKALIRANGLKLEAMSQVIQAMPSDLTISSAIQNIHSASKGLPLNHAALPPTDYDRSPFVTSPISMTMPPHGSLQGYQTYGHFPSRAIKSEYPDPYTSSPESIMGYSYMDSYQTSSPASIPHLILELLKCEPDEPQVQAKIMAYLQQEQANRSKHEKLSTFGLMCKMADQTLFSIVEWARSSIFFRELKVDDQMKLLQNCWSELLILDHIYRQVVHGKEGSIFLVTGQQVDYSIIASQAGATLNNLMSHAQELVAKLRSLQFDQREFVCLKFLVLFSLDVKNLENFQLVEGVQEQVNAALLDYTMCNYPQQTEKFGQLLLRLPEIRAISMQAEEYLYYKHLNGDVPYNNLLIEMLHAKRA
T1 sequence (P11940 whole entry): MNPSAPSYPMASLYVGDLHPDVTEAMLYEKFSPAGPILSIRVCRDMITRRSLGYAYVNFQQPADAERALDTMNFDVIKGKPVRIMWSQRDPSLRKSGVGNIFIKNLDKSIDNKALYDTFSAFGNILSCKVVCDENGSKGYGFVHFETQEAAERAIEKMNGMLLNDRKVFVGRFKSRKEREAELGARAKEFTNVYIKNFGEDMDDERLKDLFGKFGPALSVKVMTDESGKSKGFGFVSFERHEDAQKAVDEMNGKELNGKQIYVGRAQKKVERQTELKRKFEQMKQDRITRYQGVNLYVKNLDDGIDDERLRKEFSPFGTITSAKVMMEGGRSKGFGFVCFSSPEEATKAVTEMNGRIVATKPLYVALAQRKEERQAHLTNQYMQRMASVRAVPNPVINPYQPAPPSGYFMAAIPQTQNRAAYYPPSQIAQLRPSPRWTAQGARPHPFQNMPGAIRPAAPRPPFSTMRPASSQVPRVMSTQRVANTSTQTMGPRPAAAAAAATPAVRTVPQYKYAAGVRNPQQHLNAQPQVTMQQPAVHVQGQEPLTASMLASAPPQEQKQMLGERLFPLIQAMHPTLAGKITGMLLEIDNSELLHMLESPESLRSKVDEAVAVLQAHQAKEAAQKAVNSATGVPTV

| SMILES | IC50 (Steroidogenic factor 1) | IC50 [1] | IC50 [2] | AC50 [11] | also measured |
| --- | --- | --- | --- | --- | --- |
| CC(C)Oc1cccc(-c2cc(C(=O)NN3CCOCC3)c3ccccc3n2)c1 | 15.9 µM (inactive) | 35.9 µM (inactive) | 35.9 µM (inactive) |  |  |
| COc1cccc(-c2nc(=S)c3c(o2)CCCC3)c1 |  |  |  |  | IC50 [3]: > 66 µM (inactive); IC50 (Caspase-3): 24.9 µM (active); IC50 [4]: 8.32 µM (active); IC50 [5]: 20.5 µM (active); IC50 [6]: 27.4 µM (active); IC50 [7]: > 66 µM (inactive) |
| Cc1ccc(S(=O)(=O)Nc2cccc3c2O[C@H](CN(C)Cc2ccc(Cl)c(Cl)c2)[C@H](C)CN([C@H](C)CO)C3=O)cc1 |  |  |  |  | AC50 [8]: 1.37 µM (active); AC50 [9]: 0.308 µM (active); AC50 [10]: < 0.26 µM (active) |
| COc1ccc(CCNC(=O)CN2C(=O)NC3(CCCCC3C)C2=O)cc1 (configuration not stated) | 4.78 µM (active) | 35.9 µM (inactive) | 1.31 µM (active) |  |  |
| C[C@@H]1CCCCO[C@@H](CN(C)CC2CCCCC2)[C@@H](C)CN([C@H](C)CO)C(=O)c2cc(NC(=O)Nc3ccccc3)ccc2O1 |  |  |  | 2.55 µM (active) |  |
| C[C@H](CO)N1C[C@H](C)[C@H](CN(C)Cc2ccc(C(=O)Nc3ccccc3N)cc2)Oc2ccc(NC(=O)Nc3ccc4c(c3)OCO4)cc2CC1=O |  |  |  | 2.08 µM (active) |  |
| O=C(COC(=O)CCN1C(=O)C2CC=CCC2C1=O)NCCc1ccccc1 (configuration not stated) | 25.8 µM (inactive) | 35.9 µM (inactive) | 38 µM (inactive) |  |  |
| C[C@H](CO)N1C[C@H](C)[C@@H](CN(C)CC2CCCCC2)Oc2c(NC(=O)c3nc4ccccc4s3)cccc2C1=O |  |  |  | 1.21 µM (active) |  |
| C[C@@H]1CN([C@H](C)CO)C(=O)c2cccc(N(C)C)c2O[C@H]1CN(C)Cc1ccc(Oc2ccccc2)cc1 |  |  |  | 2.51 µM (active) |  |
| Cc1cc(C(=O)Nc2ccc(N3CCCC3)c(Cl)c2)ccc1[N+](=O)[O-] |  |  |  |  | IC50 [12]: 2.99 µM (not active); IC50 (Caspase-3): 28.2 µM (active); IC50 [4]: 5.48 µM (active); IC50 [5]: > 100 µM (inactive); IC50 [6]: > 100 µM (inactive) |
| Cc1ccc(-n2nnnc2-c2cnn(-c3ccc(F)cc3)c2C(F)(F)F)cc1 |  |  |  |  | AC50 [8]: 33.9 µM (active) |
| COc1cccc(S(=O)(=O)N(C)C[C@H]2Oc3cc(C#CCC(C)C)ccc3S(=O)(=O)N([C@H](C)CO)C[C@H]2C)c1 |  |  |  |  | AC50 [8]: 17.9 µM (active); AC50 [10]: 34.5 µM (active) |
| COc1ccc(NC(=O)Nc2ccc3c(c2)C(=O)N([C@H](C)CO)C[C@H](C)[C@H](CN(C)Cc2ccc(Cl)c(Cl)c2)OCCCC[C@@H](C)O3)cc1 |  |  |  | 7.11 µM (active) |  |
| COc1ccc(CCNC(=O)CSc2nn3c(=O)c(C)nnc3s2)cc1OC | 12 µM (inactive) | 35.9 µM (inactive) | 35.9 µM (inactive) |  |  |
| CCCOc1ccc(NC(=O)CC2C(=O)N(C)C(=S)N2Cc2ccc3c(c2)OCO3)cc1 (configuration not stated) | 2.03 µM (active) | 35.9 µM (inactive) | 1.67 µM (active) |  |  |

— ChEMBL document CHEMBL1201862, “PubChem BioAssay data set” (2004)
